Measurements taken from patent publication US20220306695A1, “COMPSTATIN ANALOGUES AND THEIR MEDICAL USES” (priority 2019, published 2022).
Positions of bridges follow the written chain, without caps; N, C: chain ends. Non-standard residues stand in square brackets, D forms with d. Residues, ends and D or L forms follow the SMILES beside them. Trp(1-Me) = Cn1cc(C[C@H](N)C(=O)O)c2ccccc21; Sar = CNCC(=O)O

Tests used:
[1] = Solubility test at 10 mg/mL (visual inspection and light scattering); assay type: physicochemical; details: for Solubility, Condition 1 Acetate pH 4: 10 mg/mL compound in 100 mM acetate pH 4; for Solubility, Condition 2 Acetate pH 5: 10 mg/mL compound in 100 mM acetate pH 5; for Solubility, Condition 3 Phosphate pH 6: 10 mg/mL compound in 100 mM phosphate pH 6; for Solubility, Condition 4 Phosphate pH 7: 10 mg/mL compound in 100 mM phosphate pH 7; for Solubility, Condition 5 Phosphate pH 7.5: 10 mg/mL compound in 100 mM phosphate pH 7.5
[2] = tested on: classical complement pathway; test: In vitro haemolysis assay (inhibition of classical complement pathway); assay type: cell-based, human; details: Table 3; human serum, sensitized sheep red blood cells; read-out: IC50[nM], in vitro analysis of inhibition of hemolysis
Method in brief: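 Serially diluted compound (9 points) was preincubated 15 min at room temperature with diluted human serum, titrated per batch to give 70-90% maximal haemolysis, in Tris/casein buffer pH 7.4 with Mg2+/Ca2+. Antibody-sensitized sheep erythrocytes were then added for 30 min at 37° C, and the reaction was stopped with EDTA. Haemolysis was read at A405, with IC50 from 4PL fit.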

| Structure (SMILES) | Solubility, Condition 1 Acetate pH 4 [1] | Solubility, Condition 2 Acetate pH 5 [1] | Solubility, Condition 3 Phosphate pH 6 [1] | Solubility, Condition 4 Phosphate pH 7 [1] | Solubility, Condition 5 Phosphate pH 7.5 [1] | IC50 [2] [nM] |
| --- | --- | --- | --- | --- | --- | --- |
| CC[C@H](C)[C@@H]1NC(=O)[C@@H](NC(=O)[C@H](Cc2ccccc2)NC(=O)[C@H](CCC(=O)O)NC(=O)[C@H](CO)NC(C)=O)CSSC[C@@H](C(=O)N(C)CC(=O)NCC(=O)N[C@@H](C)C(=O)N[C@@H](CCC(=O)O)C(=O)N[C@@H](CO)C(N)=O)NC(=O)[C@H](CCCNC(=N)N)NC(=O)[C@H](Cc2c[nH]cn2)NC(=O)[C@H](CCC(=O)O)NC(=O)CNC(=O)[C@H](Cc2c[nH]c3ccccc23)NC(=O)[C@H](CC(=O)O)NC(=O)[C@H](CCC(N)=O)NC(=O)[C@H](Cc2cn(C)c3ccccc23)NC1=O [Compound 74] (Ac-SEFCI[Trp(1-Me)]QDWGEHRC[Sar]GAES-NH2; disulfide 4-14) | − (denotes lack of solubility at the given condition, as UV absorbance at 340 nm exceeds 0.1 AU and/or it is visibly turbid or contains particles.) | + (denotes solubility at the given condition, as determined by UV absorbance being less than 0.1 AU at 340 nm and the sample being clear when manually inspected.) | + (denotes solubility at the given condition, as determined by UV absorbance being less than 0.1 AU at 340 nm and the sample being clear when manually inspected.) | + (denotes solubility at the given condition, as determined by UV absorbance being less than 0.1 AU at 340 nm and the sample being clear when manually inspected.) | + (denotes solubility at the given condition, as determined by UV absorbance being less than 0.1 AU at 340 nm and the sample being clear when manually inspected.) | < 100 |
| CC[C@H](C)[C@@H]1NC(=O)[C@@H](NC(=O)[C@H](Cc2ccccc2)NC(=O)[C@H](CCC(=O)O)NC(=O)[C@H](CO)NC(C)=O)CSSC[C@@H](C(=O)N(C)CC(=O)N[C@@H](CCC(=O)O)C(=O)N[C@@H](C)C(N)=O)NC(=O)[C@H](CCCNC(=N)N)NC(=O)[C@H](Cc2c[nH]cn2)NC(=O)[C@H](CCC(=O)O)NC(=O)CN(C)C(=O)[C@H](Cc2c[nH]c3ccccc23)NC(=O)[C@H](CC(=O)O)NC(=O)[C@H](CCC(N)=O)NC(=O)[C@H](Cc2cn(C)c3ccccc23)NC1=O [Compound 76, Ac-SEFC(1)I[1-Me-Trp]QDW[SarlEHRC(1)[Sar]EA-NH2] (Ac-SEFCI[Trp(1-Me)]QDW[Sar]EHRC[Sar]EA-NH2; disulfide 4-14) | − (denotes lack of solubility at the given condition, as UV absorbance at 340 nm exceeds 0.1 AU and/or it is visibly turbid or contains particles.) | − (denotes lack of solubility at the given condition, as UV absorbance at 340 nm exceeds 0.1 AU and/or it is visibly turbid or contains particles.) | + (denotes solubility at the given condition, as determined by UV absorbance being less than 0.1 AU at 340 nm and the sample being clear when manually inspected.) | + (denotes solubility at the given condition, as determined by UV absorbance being less than 0.1 AU at 340 nm and the sample being clear when manually inspected.) | + (denotes solubility at the given condition, as determined by UV absorbance being less than 0.1 AU at 340 nm and the sample being clear when manually inspected.) | < 100 |
| CC[C@H](C)[C@@H]1NC(=O)[C@@H](NC(=O)[C@H](Cc2ccccc2)NC(=O)[C@H](CCC(=O)O)NC(=O)[C@H](CO)NC(C)=O)CSSC[C@@H](C(=O)N[C@H](C(=O)N[C@@H](CCC(=O)O)C(=O)N[C@@H](C)C(N)=O)[C@@H](C)O)NC(=O)[C@H](CCCNC(=N)N)NC(=O)[C@H](Cc2c[nH]cn2)NC(=O)[C@H](CCC(=O)O)NC(=O)CN(C)C(=O)[C@H](Cc2c[nH]c3ccccc23)NC(=O)[C@H](CC(=O)O)NC(=O)[C@H](CCC(N)=O)NC(=O)[C@H](Cc2cn(C)c3ccccc23)NC1=O [Compound 77, Ac-SEFC(1)I[1-Me-Trp]QDW[Sar]EHRC(1)TEA-NH2] (Ac-SEFCI[Trp(1-Me)]QDW[Sar]EHRCTEA-NH2; disulfide 4-14) | − (denotes lack of solubility at the given condition, as UV absorbance at 340 nm exceeds 0.1 AU and/or it is visibly turbid or contains particles.) | − (denotes lack of solubility at the given condition, as UV absorbance at 340 nm exceeds 0.1 AU and/or it is visibly turbid or contains particles.) | + (denotes solubility at the given condition, as determined by UV absorbance being less than 0.1 AU at 340 nm and the sample being clear when manually inspected.) | + (denotes solubility at the given condition, as determined by UV absorbance being less than 0.1 AU at 340 nm and the sample being clear when manually inspected.) | + (denotes solubility at the given condition, as determined by UV absorbance being less than 0.1 AU at 340 nm and the sample being clear when manually inspected.) | < 100 |
| CC[C@H](C)[C@@H]1NC(=O)[C@@H](NC(=O)[C@H](Cc2ccccc2)NC(=O)[C@H](CCC(=O)O)NC(=O)[C@H](CO)NC(C)=O)CSSC[C@@H](C(=O)N(C)CC(=O)N[C@@H](CCC(=O)O)C(N)=O)NC(=O)[C@H](CCCNC(=N)N)NC(=O)[C@H](Cc2c[nH]cn2)NC(=O)[C@H](CCC(=O)O)NC(=O)CNC(=O)[C@H](Cc2c[nH]c3ccccc23)NC(=O)[C@H](CC(=O)O)NC(=O)[C@H](CCC(N)=O)NC(=O)[C@H](Cc2cn(C)c3ccccc23)NC1=O [Compound 78] (Ac-SEFCI[Trp(1-Me)]QDWGEHRC[Sar]E-NH2; disulfide 4-14) | − (denotes lack of solubility at the given condition, as UV absorbance at 340 nm exceeds 0.1 AU and/or it is visibly turbid or contains particles.) | − (denotes lack of solubility at the given condition, as UV absorbance at 340 nm exceeds 0.1 AU and/or it is visibly turbid or contains particles.) | + (denotes solubility at the given condition, as determined by UV absorbance being less than 0.1 AU at 340 nm and the sample being clear when manually inspected.) | + (denotes solubility at the given condition, as determined by UV absorbance being less than 0.1 AU at 340 nm and the sample being clear when manually inspected.) | + (denotes solubility at the given condition, as determined by UV absorbance being less than 0.1 AU at 340 nm and the sample being clear when manually inspected.) | < 100 |
| CC[C@H](C)[C@@H]1NC(=O)[C@@H](NC(=O)[C@H](Cc2ccccc2)NC(=O)[C@H](CCC(=O)O)NC(=O)[C@H](CO)NC(C)=O)CSSC[C@@H](C(=O)N(C)CC(=O)N[C@@H](CCC(=O)O)C(N)=O)NC(=O)[C@H](CCCNC(=N)N)NC(=O)[C@H](Cc2c[nH]cn2)NC(=O)[C@H](CCC(=O)O)NC(=O)CN(C)C(=O)[C@H](Cc2c[nH]c3ccccc23)NC(=O)[C@H](CC(=O)O)NC(=O)[C@H](CCC(N)=O)NC(=O)[C@H](Cc2cn(C)c3ccccc23)NC1=O [Compound 79, Ac-SEFC(1)I[1-Me-Trp]QDW[Sar]EHRC(1)[Sar]E-NH2] (Ac-SEFCI[Trp(1-Me)]QDW[Sar]EHRC[Sar]E-NH2; disulfide 4-14) | − (denotes lack of solubility at the given condition, as UV absorbance at 340 nm exceeds 0.1 AU and/or it is visibly turbid or contains particles.) | − (denotes lack of solubility at the given condition, as UV absorbance at 340 nm exceeds 0.1 AU and/or it is visibly turbid or contains particles.) | + (denotes solubility at the given condition, as determined by UV absorbance being less than 0.1 AU at 340 nm and the sample being clear when manually inspected.) | + (denotes solubility at the given condition, as determined by UV absorbance being less than 0.1 AU at 340 nm and the sample being clear when manually inspected.) | + (denotes solubility at the given condition, as determined by UV absorbance being less than 0.1 AU at 340 nm and the sample being clear when manually inspected.) | < 100 |
| CC[C@H](C)[C@@H]1NC(=O)[C@@H](NC(=O)[C@H](Cc2ccccc2)NC(=O)[C@H](CCC(=O)O)NC(C)=O)CSSC[C@@H](C(=O)N(C)CC(=O)N[C@@H](CCC(=O)O)C(=O)N[C@@H](C)C(N)=O)NC(=O)[C@H](CCCNC(=N)N)NC(=O)[C@H](Cc2c[nH]cn2)NC(=O)[C@H](CCC(=O)O)NC(=O)CNC(=O)[C@H](Cc2c[nH]c3ccccc23)NC(=O)[C@H](CC(=O)O)NC(=O)[C@H](CCC(N)=O)NC(=O)[C@H](Cc2cn(C)c3ccccc23)NC1=O [Compound 80] (Ac-EFCI[Trp(1-Me)]QDWGEHRC[Sar]EA-NH2; disulfide 3-13) | − (denotes lack of solubility at the given condition, as UV absorbance at 340 nm exceeds 0.1 AU and/or it is visibly turbid or contains particles.) | − (denotes lack of solubility at the given condition, as UV absorbance at 340 nm exceeds 0.1 AU and/or it is visibly turbid or contains particles.) | + (denotes solubility at the given condition, as determined by UV absorbance being less than 0.1 AU at 340 nm and the sample being clear when manually inspected.) | + (denotes solubility at the given condition, as determined by UV absorbance being less than 0.1 AU at 340 nm and the sample being clear when manually inspected.) | + (denotes solubility at the given condition, as determined by UV absorbance being less than 0.1 AU at 340 nm and the sample being clear when manually inspected.) | < 100 |
